Structures can show the parent of a compound that is named as a salt. Values belong to the molecule of their own block, whether it stands above or below them.
Columns and labels:
Type in all cases: physicochemical
[1] = Angle of repose of 25HC3S salts; settings: for Flow Property per USP<1174> Powder Flow: classification by angle of repose
Procedure: Angle of repose is measured as follows. Powder is poured from a funnel onto a flat surface until a cone of powder is created. The angle of repose is calculated according to the following equation: […]
Table C1, from USP<1174> Powder Flow, describes the powder flow properties correlating to the angles of repose.
The lower the angle of repose, the more flowable is a material. Powder with an angle of repose between 25° to 30° will show excellent flow through a hopper, feed frame, die table and die bore smoothly. From 41° to greater than 66°, you may experience powder flow difficulties like rat-holing or bridging within the hopper.
The angle of repose was determined by pouring approximately 2 grams of a 25HC3S salt through a 7 mm inner diameter plastic tube into the center of a 21.14 mm diameter rubber O-ring, resulting in the formation of a powder cone of fixed diameter. The height of the cone was estimated with calipers.

[2] = Appearance (color, clumping, flowability) of stored 25HC3S salts
Procedure: Approximately 25 mg of each crystalline 25HC3S salt was added to 20 mL glass vials and each powder weight was recorded. Four vials were prepared for each salt and stored at 2-8° C. or 80° C. according to Table B2. The samples were scheduled initially to pull for testing at 3 weeks and 6 weeks' time points.
For those […] salts, the remaining vials stored at 2-8° C. for 3 weeks were allocated for storage at 60° C. for 1 week. Additional stability data was generated according to Table B3.
For appearance, each unopened vial was visually examined for color, clumping, and flowability.

[3] = Final pH of the solubility sample solutions in aqueous media; settings: for pH of the solubility sample, 0.9% Sodium Chloride: 0.9% sodium chloride (blank 5.8); for pH of the solubility sample, 5% Dextrose: 5% dextrose (blank 4.7); for pH of the solubility sample, FaSSGF: FaSSGF (blank 1.5, 1.6); for pH of the solubility sample, FaSSIF: FaSSIF (blank 6.5, 6.5); for pH of the solubility sample, FeSSIF: FeSSIF (blank 4.9, 5.0); for pH of the solubility sample, Water: water (blank 6.3); for pH of solubility sample solution in 0.9% sodium chloride: 0.9% sodium chloride (medium pH 5.8)
Procedure: 25HC3S salts were weighed in 8 mL or 4 mL glass vials with Teflon coated screw caps. Aliquots of each solvent were added to each sample and vortexed for about one minute until excess solid remained. Samples were placed on shaker at room temperature with 210 motion per minute shaking.
After one day, samples were pulled and checked if excess solid was present. About 1.5 mL aliquot of each sample was centrifuged at 12000 rpm for 12 to 15 minutes. […] Aliquots of the top clear solution of each centrifuged sample in MeOH, EtOH, IPA and ACN were diluted with diluent (water:MeOH 95:5) and assayed by HPLC. Samples of the salts in aqueous media were assayed by HPLC without dilution.
5.1 Solubility of 25HC3S Salts in Aqueous Media

[4] = Hausner ratio and compressibility index of 25HC3S salts; settings: for Compressibility Index: Table C3 heads this index in %
Procedure: Although there are some variations in the method of determining the compressibility index and Hausner ratio, the basic procedure is to measure the unsettled apparent volume, VO, and the final tapped volume, Vf, of the powder after tapping the material until no further volume changes occur. The compressibility index and the Hausner ratio are calculated as follows: […]
Both the Hausner ratio and the compressibility index are empirically established. The Hausner ratio and compressibility index are not absolute properties of a material; its value can vary depending on the methodology used to determine them. In this case, since the 14 salts of 25HC3S were measured the same way, the relative values should be accurate.
Table C3, from USP <1174> Powder Flow, describes the flow character of the powder based on the compressibility index and Hausner ratio values.
Powder was carefully poured into a 5 mL glass graduated cylinder (to contain) until it was close to or at 5.0 mL. This initial volume was recorded as Vo. The graduated cylinder was tapped on a hard surface for 200 times and the volume was recorded. The cylinder was tapped 100 times more, and the final volume Vf was recorded. Typically, the volume after 200 taps was identical to after 300 taps, or within 0.1 mL.

[5] = Overall rank order of powder flowability (angle of repose and Hausner ratio); settings: for Powder flowability, overall (in words): angle of repose and compressibility index/Hausner ratio combined; for Angle of Repose Rank Order / Hausner Ratio Rank Order / Overall Rank Order (Total Score): lower is better flow; for Overall Rank Order (Total Score): sum of both ranks
Source text: Table C5 was generated by adding the relative rank order of the 25HC3S salts for angle of repose and Hausner ratio results, and creating an Over All Rank Order of the salts powder flowability. The salts with the lower overall rank order score had better powder flowability.

[6] = Thermogravimetric analysis (TGA), weight loss
Procedure: Differential scanning calorimetry (DSC) is a thermoanalytical technique where the difference in the amount of heat required to increase the temperature of a sample and reference is measured as a function of temperature. Using this technique, phase transitions of a sample can be measured such as melting point. Decomposition can also be observed by DSC as can dehydration events. In the context of DSC measurements, there is also variability and the term “about” means ±1° C., and such variability is to be understood whether a DSC measurement is prefaced by “about” or not unless specified otherwise. Exemplary methods for collecting DSC data are set forth in Example 21. Thermogravimetric analysis, sometimes referred to as, thermal gravimetric analysis (TGA) is a thermal method of thermal analysis where the mass of a sample is measured as a function of time as the sample temperature changes. For example, when samples disclosed herein are heated and a loss in mass is measured prior to decomposition, this is likely indicative of the loss of water from the sample and may indicate that the sample being heated is a hydrate. Exemplary methods for collecting TGA are set forth in Example 23.
TG analysis was performed using a Mettler-Toledo TGA/DSC3 analyzer. Temperature and enthalpy adjustments were performed using indium, tin, and zinc, and then verified with indium. The balance was verified with calcium oxalate. The sample was placed in an open aluminum pan. The pan was hermetically sealed, the lid pierced, then inserted into the TG furnace. A weighed aluminum pan configured as the sample pan was placed on the reference platform. The furnace was heated under nitrogen. Each sample was heated from ambient temperature to 350° C. at 10° C./min. Although thermograms are plotted by reference temperature (x-axis), results are reported according to sample temperatures.

Flow Property per USP<1174> Powder Flow ([1]; listed as 25HC3S potassium): Fair - aid not needed | Angle of Repose ([1]; listed as 25HC3S potassium): 37.7 degrees | Angle of Repose, Rounded Whole Number ([1]; listed as 25HC3S potassium): 38 degrees | Appearance ([2]; 2-8° C., 3 wk, listed as 25HC3S potassium): White, free flowing powder with some | Appearance ([2]; 60° C., 1 wk (after 3 weeks at 2-8° C.), listed as 25HC3S potassium): White, free flowing powder with some | Appearance after 3 weeks at 80° C. ([2]; 80° C.): completely burned | Appearance ([2]; 80° C., 3 wk, listed as 25HC3S potassium): Dark brown powder, stuck to bottom of | pH of the solubility sample, 0.9% Sodium Chloride ([3]; listed as 25HC3S potassium): 8.4 | pH of the solubility sample, 5% Dextrose ([3]; listed as 25HC3S potassium): 7.3 | pH of the solubility sample, FaSSGF [3]: 1.6 | pH of the solubility sample, FaSSIF ([3]; listed as 25HC3S potassium): 6.5 | pH of the solubility sample, FeSSIF [3]: 5.0 | pH of solubility sample solution in water [3]: 8.9 | pH of the solubility sample, Water ([3]; listed as 25HC3S potassium): 8.9 | Compressibility Index ([4]; listed as 25HC3S potassium): 26 | Hausner Ratio ([4]; listed as 25HC3S potassium): 1.35 | Powder flowability, overall (in words) ([5]; listed as potassium): top three | Angle of Repose Rank Order ([5]; listed as 25HC3S potassium): 6 | Hausner Ratio Rank Order ([5]; listed as 25HC3S potassium): 3 | Overall Rank Order (Total Score) ([5]; listed as 25HC3S potassium): 9 | Weight loss by TGA, 100° C. to 180° C. ([6]; 100° C. to 180° C.): 1.7% | Weight loss by TGA to about 100° C. ([6]; to about 100° C.): about 0.9%
SMILES: CC(CCCC(C)(C)O)C1CCC2C3CC=C4CC(OS(=O)(=O)O)CCC4(C)C3CCC12C (stereo not shown) [Salt #1]

Flow Property per USP<1174> Powder Flow ([1]; listed as 25HC3S calcium): Passable - may hang up | Angle of Repose ([1]; listed as 25HC3S calcium): 42.6 degrees | Angle of Repose, Rounded Whole Number ([1]; listed as 25HC3S calcium): 43 degrees | Appearance ([2]; 2-8° C., 3 wk, listed as 25HC3S calcium): White, free flowing powder with some | Appearance ([2]; 60° C., 1 wk (after 3 weeks at 2-8° C.), listed as 25HC3S calcium): Brown, melted material stuck to bottom | Appearance after 3 weeks at 80° C. ([2]; 80° C.): completely burned | Appearance ([2]; 80° C., 3 wk, listed as 25HC3S calcium): Dark brown, melted material stuck to | pH of the solubility sample, 0.9% Sodium Chloride ([3]; listed as 25HC3S calcium): 8.5 | pH of solubility sample solution in 0.9% sodium chloride [3]: 8.5 | pH of the solubility sample, 5% Dextrose ([3]; listed as 25HC3S calcium): 7.2 | pH of the solubility sample, FaSSGF [3]: 1.6 | pH of the solubility sample, FaSSIF ([3]; listed as 25HC3S calcium): 6.5 | pH of the solubility sample, FeSSIF [3]: 5.0 | pH of the solubility sample, Water ([3]; listed as 25HC3S calcium): 8.8 | Compressibility Index ([4]; listed as 25HC3S calcium): 36 | Hausner Ratio ([4]; listed as 25HC3S calcium): 1.56 | Powder flowability, overall (in words) ([5]; listed as calcium): poorer flowability | Angle of Repose Rank Order ([5]; listed as 25HC3S calcium): 11 | Hausner Ratio Rank Order ([5]; listed as 25HC3S calcium): 11 | Overall Rank Order (Total Score) ([5]; listed as 25HC3S calcium): 22 | Weight loss by TGA, about 112° C. to about 130° C. ([6]; about 112° C. to about 130° C.): 3.1% | Weight loss by TGA, room temperature to about 93° C. ([6]; room temperature to about 93° C.): about 0.9%
SMILES: CC(CCCC(C)(C)O)C1CCC2C3CC=C4CC(OS(=O)(=O)O)CCC4(C)C3CCC12C (stereo not shown) [Salt #2]

Flow Property per USP<1174> Powder Flow ([1]; listed as 25HC3S zinc): Passable - may hang up | Angle of Repose ([1]; listed as 25HC3S zinc): 42.4 degrees | Angle of Repose, Rounded Whole Number ([1]; listed as 25HC3S zinc): 42 degrees | Appearance ([2]; 2-8° C., 3 wk, listed as 25HC3S zinc): White, free flowing powder with clumping | Appearance ([2]; 60° C., 1 wk (after 3 weeks at 2-8° C.), listed as 25HC3S zinc): Light brown, melted material stuck to | Appearance after 3 weeks at 80° C. ([2]; 80° C.): completely burned | Appearance ([2]; 80° C., 3 wk, listed as 25HC3S zinc): Dark brown, melted material stuck to | pH of the solubility sample, 0.9% Sodium Chloride ([3]; listed as 25HC3S zinc): 6.4 | pH of solubility sample solution in 0.9% sodium chloride [3]: 6.4 | pH of the solubility sample, 5% Dextrose ([3]; listed as 25HC3S zinc): 7.1 | pH of the solubility sample, FaSSGF [3]: 1.6 | pH of the solubility sample, FaSSIF ([3]; listed as 25HC3S zinc): 6.5 | pH of the solubility sample, FeSSIF [3]: 5.0 | pH of solubility sample solution in water [3]: 7.4 | pH of the solubility sample, Water ([3]; listed as 25HC3S zinc): 7.4 | Compressibility Index ([4]; listed as 25HC3S zinc): 28 | Hausner Ratio ([4]; listed as 25HC3S zinc): 1.39 | Powder flowability, overall (in words) ([5]; listed as zinc): next group | Angle of Repose Rank Order ([5]; listed as 25HC3S zinc): 10 | Hausner Ratio Rank Order ([5]; listed as 25HC3S zinc): 5 | Overall Rank Order (Total Score) ([5]; listed as 25HC3S zinc): 15 | Weight loss by TGA, about […] C. to about 190° C. ([6]; about […] C. to about 190° C., may be decomposition): 11.5% | Weight loss by TGA, room temperature to about 130° C. ([6]; room temperature to about 130° C.): about 5.1%
SMILES: CC(CCCC(C)(C)O)C1CCC2C3CC=C4CC(OS(=O)(=O)O)CCC4(C)C3CCC12C (stereo not shown) [Salt #3]

Reference: patent publication US20260317367A1, “SALTS INCLUDING CRYSTALLINE SALTS OF 25-HYDROXY-CHOLEST-5-EN-3-SULFATE AND METHODS FOR PREPARING SAME” (Durect Corporation, priority 2022, published 2026)
